Experimental data as given in article PMC12190436, “5-Ene-2-arylaminothiazol-4(5H)-ones Induce Apoptosis in Breast Cancer Cells” (Cells, 2025).

Tests used:
MCF-7 cells = assay: Acridine orange/ethidium bromide staining, morphology; type: cell-based, human; details: 5 µM, 24 h, MCF-7, AO/EB staining
Description: To display morphological changes in the MCF-7 cells after 24 h of treatment by lead compound Les-6416 and the positive control doxorubicin, we performed acridine orange and ethidium bromide staining. MCF-7 cells were seeded in 6-well plates at 1 × 10^5 cells per well in 2 mL medium, followed by incubation for 24 h. Afterwards, the cells were treated with lead compound Les-6416 at a concentration equal to 5 µM and DOX in a concentration equal to 0.5 µM. Next, cells were washed with 1 mL of PBS per well. Subsequently, double staining was performed using 10 µL of AO and EB, incubated at room temperature for 10 min. After that, cells were washed with PBS. Images were obtained with the use of a Nikon ECLIPSE Ti fluorescence microscope (Nikon, Tokyo, Japan). Images were analyzed using ImageJ software version 1.54k (Bethesda, MD, USA).
To analyze morphological changes in MCF-7 cells after 24 h of treatment, we performed the double staining with acridine orange and ethidium bromide. This method provides the capability to observe different stages of cell death depending on cell membrane integrity and chromatin condensation. Green fluorescence can be observed due to acridine orange staining, that penetrates all cells, while red coloring is contributed to ethidium bromide, which can only penetrate cells with injured cell membranes. […]

RXF 393 = type: cell-based
MDA-MB-231/ATCC = type: cell-based
TK-10 = type: cell-based
CAKI-1 = type: cell-based
OVCAR-3 = type: cell-based
NCI-H266 = type: cell-based
COLO 205 = type: cell-based
SF-539 = type: cell-based
OVCAR-4 = type: cell-based
IGROV1 = type: cell-based
PC-3 = type: cell-based
Leukemia = type: cell-based
SNB-75 = type: cell-based
SN12C = type: cell-based
M14 = type: cell-based
A498 = type: cell-based
HCT-116 = type: cell-based
SF-268 = type: cell-based
Ovarian Cancer = type: cell-based
EKVX = type: cell-based
[1] = Homo sapiens, 48 h, read-out: LC50 (the source's name)

Structure (SMILES): COc1cc(NC2=NC(=O)C(=Cc3ccc4cc[nH]c4c3)S2)cc(OC)c1OC [Les-6416, 5-((1H-Indol-6-yl)methylene)-2-((3,4,5-trimethoxyphenyl)amino)thiazol-4(5H)-one]
- morphological changes (MCF-7 cells): cell shrinkage and chromatin condensation

Structure (SMILES): COc1cc(NC2=NC(=O)C(=Cc3c[nH]c4ccccc34)S2)cc(OC)c1OC [Les-6418, 5-((1H-Indol-3-yl)methylene)-2-((3,4,5-trimethoxyphenyl)amino)thiazol-4(5H)-one]
- GI50 (RXF 393; Homo sapiens, RXF 393, 48 h): 1 µM
- CC50 (RXF 393; Homo sapiens, RXF 393, 48 h, read-out: LC50 (the source's name)): 34 µM
- TGI (RXF 393; RXF 393, 48 h): 5.80 µM
- SI (TGI) (RXF 393; RXF 393, MG_MID_60/value): 3.21
- TGI (MDA-MB-231/ATCC; 48 h): 18.8 µM
- GI50 (MDA-MB-231/ATCC; Homo sapiens, 48 h): 4.77 µM
- CC50 (MDA-MB-231/ATCC; [1]): 55.2 µM
- SI (TGI) (MDA-MB-231/ATCC; MG_MID_60/value): 0.99
- GI50 (TK-10; Homo sapiens, TK-10, 48 h): 8.56 µM
- CC50 (TK-10; Homo sapiens, TK-10, 48 h, read-out: LC50 (the source's name)): 55.6 µM
- TGI (TK-10; TK-10, 48 h): 22.8 µM
- SI (TGI) (TK-10; TK-10, MG_MID_60/value): 0.82
- TGI (CAKI-1; CAKI-1, 48 h): 10.3 µM
- SI (TGI) (CAKI-1; CAKI-1, MG_MID_60/value): 1.81
- GI50 (CAKI-1; Homo sapiens, CAKI-1, 48 h): 0.84 µM
- CC50 (CAKI-1; Homo sapiens, CAKI-1, 48 h, read-out: LC50 (the source's name)): 33.1 µM
- GI50 (OVCAR-3; Homo sapiens, OVCAR-3, 48 h): 0.517 µM
- CC50 (OVCAR-3; Homo sapiens, OVCAR-3, 48 h, read-out: LC50 (the source's name)): 34 µM
- Growth % (OVCAR-3; OVCAR-3, 10 μM, one dose, 48 h): 76.96%
- TGI (OVCAR-3; OVCAR-3, 48 h): 5.32 µM
- SI (TGI) (OVCAR-3; OVCAR-3, MG_MID_60/value): 3.50
- GI50 (NCI-H266; Homo sapiens, NCI-H266, 48 h): 3.18 µM
- CC50 (NCI-H266; Homo sapiens, NCI-H266, 48 h, read-out: LC50 (the source's name)): 68.8 µM
- TGI (NCI-H266; NCI-H266, 48 h): 17.4 µM
- SI (TGI) (NCI-H266; NCI-H266, MG_MID_60/value): 1.07
- TGI (COLO 205; COLO 205, 48 h): 16.4 µM
- SI (TGI) (COLO 205; COLO 205, MG_MID_60/value): 1.13
- GI50 (COLO 205; Homo sapiens, COLO 205, 48 h): 3.14 µM
- CC50 (COLO 205; Homo sapiens, COLO 205, 48 h, read-out: LC50 (the source's name)): 49.6 µM
- GI50 (SF-539; Homo sapiens, SF-539, 48 h): 2.49 µM
- CC50 (SF-539; Homo sapiens, SF-539, 48 h, read-out: LC50 (the source's name)): 35.5 µM
- Growth % (SF-539; SF-539, 10 μM, one dose, 48 h): −85.30%
- TGI (SF-539; SF-539, 48 h): 9.95 µM
- SI (TGI) (SF-539; SF-539, MG_MID_60/value): 1.87
- GI50 (OVCAR-4; Homo sapiens, OVCAR-4, 48 h): 2.88 µM
- CC50 (OVCAR-4; Homo sapiens, OVCAR-4, 48 h, read-out: LC50 (the source's name)): 35.3 µM
- TGI (OVCAR-4; OVCAR-4, 48 h): 10.6 µM
- SI (TGI) (OVCAR-4; OVCAR-4, MG_MID_60/value): 1.75
- GI50 (IGROV1; Homo sapiens, IGROV-1, IGROV1, 48 h): 4.91 µM
- CC50 (IGROV1; Homo sapiens, IGROV-1, IGROV1, 48 h, read-out: LC50 (the source's name)): 57.2 µM
- TGI (IGROV1; IGROV1, 48 h): 21.6 µM
- SI (TGI) (IGROV1; IGROV1, MG_MID_60/value): 0.86
- GI50 (PC-3; Homo sapiens, PC-3, 48 h): 2.59 µM
- CC50 (PC-3; Homo sapiens, PC-3, 48 h, read-out: LC50 (the source's name)): 94.2 µM
- TGI (PC-3; PC-3, 48 h): 22.6 µM
- SI (TGI) (PC-3; PC-3, MG_MID_60/value): 0.82
- GI50 (Leukemia; Homo sapiens, Leukemia subpanel mean, read-out: MG_MID GI50): 2.04 µM
- CC50 (Leukemia; Homo sapiens, Leukemia subpanel mean, read-out: MG_MID LC50): > 100 µM
- MG_MID TGI (Leukemia; Leukemia subpanel mean): 49.7 µM
- SI (MG_MID TGI) (Leukemia; Leukemia subpanel, MG_MID_60/value): 0.37
- GI50 (SNB-75; Homo sapiens, SNB-75, 48 h): 1.24 µM
- CC50 (SNB-75; Homo sapiens, SNB-75, 48 h, read-out: LC50 (the source's name)): 11.9 µM
- TGI (SNB-75; SNB-75, 48 h): 3.63 µM
- SI (TGI) (SNB-75; SNB-75, MG_MID_60/value): 5.12
- Growth % (SN12C; 10 μM, one dose, 48 h): −88.00%
- TGI (SN12C; 48 h): 15.1 µM
- GI50 (SN12C; Homo sapiens, 48 h): 3.85 µM
- CC50 (SN12C; [1]): 43.6 µM
- SI (TGI) (SN12C; MG_MID_60/value): 1.23
- GI50 (M14; Homo sapiens, M14, 48 h): 2.02 µM
- CC50 (M14; Homo sapiens, M14, 48 h, read-out: LC50 (the source's name)): 55.6 µM
- TGI (M14; M14, 48 h): 15.9 µM
- SI (TGI) (M14; M14, MG_MID_60/value): 1.17
- Growth % (A498; A498, 10 μM, one dose, 48 h): −76.12%
- TGI (A498; A498, 48 h): 24.6 µM
- SI (TGI) (A498; A498, MG_MID_60/value): 0.76
- GI50 (A498; Homo sapiens, A498, 48 h): 10.2 µM
- CC50 (A498; Homo sapiens, A498, 48 h, read-out: LC50 (the source's name)): 59.6 µM
- TGI (HCT-116; HCT-116, 48 h): 10.2 µM
- SI (TGI) (HCT-116; HCT-116, MG_MID_60/value): 1.82
- GI50 (HCT-116; Homo sapiens, HCT-116, 48 h): 1.1 µM
- CC50 (HCT-116; Homo sapiens, HCT-116, 48 h, read-out: LC50 (the source's name)): 50.6 µM
- GI50 (SF-268; Homo sapiens, SF-268, 48 h): 3.56 µM
- CC50 (SF-268; Homo sapiens, SF-268, 48 h, read-out: LC50 (the source's name)): 81.3 µM
- TGI (SF-268; SF-268, 48 h): 20.0 µM
- SI (TGI) (SF-268; SF-268, MG_MID_60/value): 0.93
- GI50 (Ovarian Cancer; Homo sapiens, Ovarian Cancer subpanel mean, read-out: MG_MID GI50): 4.61 µM
- CC50 (Ovarian Cancer; Homo sapiens, Ovarian Cancer subpanel mean, read-out: MG_MID LC50): 50.5 µM
- MG_MID TGI (Ovarian Cancer; Ovarian Cancer subpanel mean): 16.7 µM
- SI (MG_MID TGI) (Ovarian Cancer; Ovarian Cancer subpanel, MG_MID_60/value): 1.11
- TGI (EKVX; 48 h): 22.2 µM
- GI50 (EKVX; Homo sapiens, 48 h): 8.02 µM
- LC50 (EKVX; Homo sapiens, 48 h): 53.2 µM
- SI (TGI) (EKVX; MG_MID_60/value): 0.84
